According to patent US11583890B2, “Low temperature curing 1K basecoat and method to coat a substrate with the 1K basecoat” (BASF Coatings GmbH, priority 2017, dated 2023):

Assay: physchem
Settings: not given
From the text: The availability of the base electron pair is influenced by the steric environment presented by the groups (R′, R″ and CH2OH) bonded to the N and any electronic influence of those same groups.

Q: With `CC(C)(N)CO` [AMP, 2-amino-2-methyl-1-propanol, reference compound] as the molecule, how does the pKa read?
A: 9.8

Q: For `CN(C)CCO` [DMEOA, N,N-dimethylethanolamine, reference compound], which pKa is on record?
A: 9.2

Q: Which pKa does the source give for `CCCNCCC` [di-n-propyl amine] here?
A: 10.9

Q: With `CCCN(CO)CCC` [methylol adduct of di-n-propyl amine] as the molecule, how does the pKa read?
A: 8.01

Q: For `CCN(CC)CO` [methylol adduct of diethylamine], which pKa is on record?
A: 8.9

Q: With `CC(C)N(CO)C(C)C` [methylol adduct of diisopropylamine] as the molecule, how does the pKa read?
A: 9.0

Q: With `OCN1CCCCC1` [methylol adduct of piperidine] as the molecule, how does the pKa read?
A: 9.2

Q: For `OCN1CCCC1` [methylol adduct of pyrrolidine], which pKa is on record?
A: 8.9

Q: With `C1CCNC1` [pyrrolidine] as the molecule, how does the pKa read?
A: 10.6

Assay: physchem
Type: physicochemical
Settings: pH 8
From the text: One of ordinary skill will recognize that log P is a guideline tool for assessing amine candidates, since actual migration to the clear coat layer or retention within the aqueous 1K basecoat layer will be dependent upon the nature of the solvent base of the clear coat and other factors including the influence of other additives commonly present in the composition of both layers.
In one aspect of the first embodiment, the secondary amine may be a dialkyl amine.

Q: For `CCCCNCCCC` [di-n-butyl amine], which logP is on record?
A: ~2.8

Q: For `CCCNCCC` [di-n-propyl amine], which logP is on record?
A: ~1.6

Q: With `CCNC(C)C` [ethyl isopropyl amine] as the molecule, how does the logP read?
A: 0.93
